According to patent publication US7799747B2, “Method of reducing surfactant damage using compositions comprising benefit agents of defined high polarity” (Conopco, Inc., priority 2005, dated 2010):

Columns and labels:
[1] = system: pig skin; test: HPLC test for surfactant deposition onto pig skin after wash; conditions: SDS measured in combination with the benefit agent
[2] = molecular target: BSA (Bovine Serum Albumin) (Bos taurus, UniProt P02769); test: Conductivity test: surfactant binding to BSA protein; conditions: 10% SDS with 10% oil (1:1), 0.5% BSA in 0.02M acetate buffer pH~5.2, room temperature
Procedure: Conductance measurements were carried out at room temperature by use of a Thermo conductivity meter, model Orion 150+. Routinely, the titrations were performed by adding a controlled amount of 10% of stock surfactant solution under magnetic stirring into the 0.5% BSA (Bovine Serum Albumin) in 0.02M acetate buffer at pH˜5.2. Values of CMC (critical micellization concentration), CAC (critical aggregation concentration) and protein saturation point (PSP) were defined by the changing of the slope of the conductivity vs. surfactant concentration plots. The number of surfactants binding to each protein can be calculated by: {[PSP]−[CAC]}/{[protein]/Mwprotein}, where [protein] is the protein concentration.
In order to show the effect of benefit agent having different polarity on binding to protein molecule (a reflection of the harshness of surfactant; more surfactant binding to protein equal harsher and more damage expected), applicants tested surfactant binding of (1) surfactant alone and (2) of surfactant in combination with various oils/cosolvents (at 1:1 surfactant to oil ratio) to see level of (how many) surfactants binding per protein molecule (e.g., BSA) at saturation. The tests were done using conductivity test described in protocol and results are set forth below in Table 1.
Applicants conducted same test as in Examples 1 to 10, but used SLES/CAPB surfactant system instead of SDS.

[3] = molecular target: BSA (Bos taurus, UniProt P02769); test: Micro-DSC for protein denaturation; conditions: denaturation enthalpy approaching zero, FIG. 5
Sequence of BSA (P02769 25-607): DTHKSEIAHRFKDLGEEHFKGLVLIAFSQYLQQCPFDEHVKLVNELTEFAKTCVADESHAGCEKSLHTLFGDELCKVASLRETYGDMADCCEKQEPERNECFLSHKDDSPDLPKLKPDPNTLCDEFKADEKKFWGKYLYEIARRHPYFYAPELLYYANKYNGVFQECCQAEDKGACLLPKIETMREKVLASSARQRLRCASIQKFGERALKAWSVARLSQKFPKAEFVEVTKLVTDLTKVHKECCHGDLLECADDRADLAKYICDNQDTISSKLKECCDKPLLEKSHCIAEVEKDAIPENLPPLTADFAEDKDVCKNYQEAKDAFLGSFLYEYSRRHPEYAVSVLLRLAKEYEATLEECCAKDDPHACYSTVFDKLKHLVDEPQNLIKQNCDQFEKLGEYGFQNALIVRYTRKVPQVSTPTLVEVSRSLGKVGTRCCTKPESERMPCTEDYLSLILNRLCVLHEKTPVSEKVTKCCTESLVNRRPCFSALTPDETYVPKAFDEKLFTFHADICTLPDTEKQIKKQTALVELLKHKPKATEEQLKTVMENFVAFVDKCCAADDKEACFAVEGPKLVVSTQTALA
Procedure: 1.2% of BSA acetate buffer solution was prepared (pH 5.2, IS 0.02). […] Then the BSA acetate solution was titrated with either oil, or surfactant, or oil/surfactant at 1:1 ratio. After each titration, a DSC measurement was performed.

Sequence of BSA (Bovine Serum Albumin) (P02769 25-607): as above

SMILES: CCCCCCCCCCCC [dodecane]
- SDS deposition versus SDS alone (FIG. 1) [1]: deposition was about the same or higher

SMILES: CCCCCCCCCCCCOS(=O)(=O)[O-].[Na+] [10% SDS, Sodium dodecyl sulfate]
- Saturated binding: No. of surfactant per BSA at saturation [2]: 220
- ratio surfactant to protein at which BSA is fully denatured at room temperature [3]: about 1.2
